In patent publication US7122558B2 (priority 2000, dated 2006) one finds inhibition data, which are given here for 10 molecules.

The experiment concerns the target T1, human muscarinic receptors M3 (Homo sapiens, UniProt P20309).
T1 construct: expressed in transfected cells; host or cells: CHO-K1 (chinese hamster ovary-K1), stably transfected; membrane preparations
Briefly: biochemical. Format: binding. The settings on record: for inhibition at 0.1 µM: read-out: % INHIBITION concentration: 1.00E−07 M; for inhibition at 0.01 µM: read-out: % INHIBITION concentration: 1.00E−08 M.

Where a name gives a salt, the structure may show the parent alone.

T1 sequence (P20309 whole entry): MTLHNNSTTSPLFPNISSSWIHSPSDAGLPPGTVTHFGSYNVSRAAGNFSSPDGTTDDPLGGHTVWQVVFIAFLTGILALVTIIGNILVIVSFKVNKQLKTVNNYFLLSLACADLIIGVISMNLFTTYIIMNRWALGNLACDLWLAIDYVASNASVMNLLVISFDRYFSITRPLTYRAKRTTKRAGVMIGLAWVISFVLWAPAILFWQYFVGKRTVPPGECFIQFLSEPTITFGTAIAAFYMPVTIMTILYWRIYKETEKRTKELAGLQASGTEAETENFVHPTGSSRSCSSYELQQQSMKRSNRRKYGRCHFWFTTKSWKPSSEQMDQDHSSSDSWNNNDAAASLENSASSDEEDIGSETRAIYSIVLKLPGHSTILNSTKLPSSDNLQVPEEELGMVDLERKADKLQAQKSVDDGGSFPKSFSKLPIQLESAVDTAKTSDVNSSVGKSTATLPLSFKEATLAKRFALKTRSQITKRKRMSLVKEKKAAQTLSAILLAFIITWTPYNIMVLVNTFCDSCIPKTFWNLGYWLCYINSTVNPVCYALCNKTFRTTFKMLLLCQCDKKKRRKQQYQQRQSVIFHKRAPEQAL

On to `O=C(O[C@H]1C[N+]2(CCCOc3cccc(O)c3)CCC1CC2)[C@](O)(c1cccs1)C1CCCC1` [Example 31, (3R)-3-[(2S)-2-Cyclopentyl-2-hydroxy-2-thien-2-ylacetoxy]-1-[3-(3-hydroxyphenoxy)propyl]-1-azoniabicyclo[2.2.2]octane trifluoroacetate], for which the inhibition at 0.1 µM was 74.3% and the inhibition at 0.01 µM was found to be 54.3%.
With `O=C(O[C@H]1C[N+]2(CCc3ccccc3)CCC1CC2)[C@](O)(c1ccccc1)C1CCCC1` [Example 83, (3R)-3-[(2R)-2-Cyclopentyl-2-hydroxy-2-phenylacetoxy]-1-phenethyl-1-azoniabicyclo[2.2.2]octane trifluoroacetate], the inhibition at 0.1 µM came to 72.7% and the inhibition at 0.01 µM came out at 60.3%.
Turning to `Cc1ccccc1OCCC[N+]12CCC(CC1)[C@@H](OC(=O)[C@](O)(c1cccs1)C1CCCC1)C2` [Example 33, (3R)-3-[(2S)-2-Cyclopentyl-2-hydroxy-2-thien-2-ylacetoxy]-1-(3-o-tolyloxypropyl)1-azoniabicyclo[2.2.2]octane trifluoroacetate], the inhibition at 0.1 µM amounted to 72.8% and the inhibition at 0.01 µM was determined as 46.7%.
The corresponding values for `CN(CCC[N+]12CCC(CC1)[C@@H](OC(=O)[C@](O)(c1cccs1)C1CCCC1)C2)c1ccccc1` [Example 36, (3R)-3-[(2S)-2-Cyclopentyl-2-hydroxy-2-thien-2-ylacetoxy]-1-[3-(methylphenylamino)propyl]-1-azoniabicyclo[2.2.2]octane trifluoroacetate] are 84.2% and 42%.
In the same order, the values of `CCCCCC(O)(C(=O)O[C@H]1C[N+]2(CCCOc3ccccc3)CCC1CC2)c1cccs1` (stereo partly drawn) [Example 16, (3R)-3-(2-Hydroxy-2-thien-2-ylheptanoyloxy)-1-(3-phenoxypropyl)-1-azoniabicyclo[2.2.2]octane trifluoroacetate] are 74.2% and 36.3%.
The corresponding values for `CC(C)[N+]1(C)[C@@H]2CC[C@H]1C[C@@H](OC(=O)C(CO)c1ccccc1)C2` (some centres unmarked) [Ipratropium bromide, reference compound] are 93.8% and 67.2%.
As to `O=C(O[C@H]1C[N+]2(CCCOc3ccc4c(c3)OCO4)CCC1CC2)[C@](O)(c1cccs1)C1CCCC1` [Example 46, 1-[3-(Benzo[1,3]dioxol-5-yloxy)propyl]-(3R)-3-[(2S)-2-cyclopentyl-2-hydroxy-2-thien-2-ylacetoxy]-1-azoniabicyclo[2.2.2]octane trifluoroacetate], the inhibition at 0.1 µM was determined as 87.1% and the inhibition at 0.01 µM stood at 57.6%.
The corresponding values for `O=C(O[C@H]1C[N+]2(CCCOc3ccc(F)cc3F)CCC1CC2)[C@](O)(c1cccs1)C1CCCC1` [Example 43, (3R)-3-[(2S)-2-Cyclopentyl-2-hydroxy-2-thien-2-ylacetoxy]-1-[3-(2,4-difluorophenoxy)propyl]-1-azoniabicyclo[2.2.2]octane trifluoroacetate] are 83.4% and 58.7%.
`C=CCC(O)(C(=O)O[C@H]1C[N+]2(CCCOc3ccccc3)CCC1CC2)c1cccs1` (stereo partly drawn) [Example 13, (3R)-3-(2-Hydroxy-2-thien-2-ylpent-4-enoyloxy)-1-(3-phenoxypropyl)-1-azoniabicyclo[2.2.2]octane bromide]: the inhibition at 0.1 µM came out at 76% and the inhibition at 0.01 µM came to 36%.
The corresponding values for `O=C(O[C@H]1C[N+]2(CCc3ccccc3)CCC1CC2)[C@](O)(c1ccco1)C1CCCCC1` [Example 80, (3R)-3-[(2R)-2-Cyclohexyl-2-fur-2-yl-2-hydroxyacetoxy]-1-phenethyl-1-azoniabicyclo[2.2.2]octane trifluoroacetate] are 72.4% and 55.8%.
